The values below come from ChEMBL document CHEMBL4402528, “Multi-target drugs active against leishmaniasis: A paradigm of drug repurposing” (Eur J Med Chem, 2019).

Values after ≈ are worked out from the molar mass of the structure shown.

The subject of one assay is Candida albicans. Description: Antifungal activity against Candida albicans assessed as reduction in viability after 24 hrs by broth microdilution assay. Format: functional. (Dilution methods test growth across graded concentrations, often in twofold steps.)
For assay [1], the system named is Leishmania amazonensis. Description: Antileishmanial activity against Leishmania amazonensis promastigotes assessed as reduction in parasite viability after 72 hrs by CCK-8 assay. It counts as functional, organism-based.
Assay [2] relates to Leishmania amazonensis. Description: Antileishmanial activity against Leishmania amazonensis MHOM/BR/75/Josefa promastigotes assessed as reduction in parasite viability after 72 hrs by Neubauer chamber counting method. Format: functional, organism-based.
Assay [3] concerns Leishmania amazonensis. Description: Antileishmanial activity against Leishmania amazonensis MHOM/BR/75/Josefa intracellular amastigotes infected in CF-1 macrophages assessed as reduction in parasite viability after 72 hrs by optical microscopic method. Format: functional, organism-based.
The subject of assay [4] is Leishmania amazonensis. Description: Antileishmanial activity against Leishmania amazonensis MHOM/BR/77/LTB 0016 promastigotes assessed as reduction in parasite viability after 72 hrs by MTT assay. The conditions noted are these: MHOM/BR/77/LTB 0016, 72 h. It counts as functional, organism-based.
Assay [5] deals with Leishmania amazonensis. Description: Antileishmanial activity against Leishmania amazonensis MHOM/BR/77/LTB 0016 intracellular amastigotes infected in BALB/c Peritoneal macrophages assessed as reduction in parasite viability after 72 hrs by light microscopic method. Format: functional, organism-based. As to conditions: MHOM/BR/77/LTB 0016, 72 h.
The next assay deals with Leishmania donovani. Description: Antileishmanial activity against Leishmania donovani LCR-133 promastigotes assessed as reduction in RNA synthesis at 95 uM preincubated for 30 mins followed by addition of 5-[3H]-uridine and measured up to 145 mins by liquid scintillation counting method relative o control. The arrangement: scale not given: the % may be the effect or the level left. It counts as functional.

A further assay concerns Leishmania mexicana. Description: Antileishmanial activity against Leishmania mexicana intracellular amastigotes infected in J774 macrophages assessed as reduction in parasite viability after 72 hrs. It counts as functional, organism-based. The conditions noted are these: J774, 72 h.

Usually MIC stands for the smallest concentration in the dilution series that meets the test's criterion for growth inhibition. As to `C[C@@H]1C[C@@H](C)/C=C/C=C/C=C/C=C/C=C/C=C/C=C/[C@H](O[C@@H]2O[C@H](C)[C@@H](O)[C@H](N)[C@@H]2O)C[C@@H]2O[C@](O)(C[C@@H](O)C[C@@H](O)[C@H](O)CC[C@@H](O)C[C@@H](O)CC(=O)O[C@H]1C)C[C@H](O)[C@H]2C(=O)O`, the MIC with Candida albicans was 4 µM (≈ 3.63 µg/mL).
On to `C[C@@H]1[C@H](O)[C@@H](C)/C=C/C=C/C=C/C=C/C=C/C=C/C=C/[C@H](O[C@@H]2O[C@H](C)[C@@H](O)[C@H](N)[C@@H]2O)C[C@@H]2O[C@](O)(C[C@@H](O)C[C@@H](O)[C@H](O)CC[C@@H](O)C[C@@H](O)CC(=O)O[C@H]1C)C[C@H](O)[C@H]2C(=O)O` [AMPHOTERICIN B], for which the MIC in the assay on Candida albicans came to 0.25 µM (≈ 0.231 µg/mL).
The IC50 is the concentration that gives 50% inhibition. With `OC(Cn1cncn1)(Cn1cncn1)c1ccc(F)cc1F` [FLUCONAZOLE], in the assay on Leishmania amazonensis [1], the IC50 was found to be 10100 nM.
`CCC(C)n1ncn(-c2ccc(N3CCN(c4ccc(OCC5COC(Cn6cncn6)(c6ccc(Cl)cc6Cl)O5)cc4)CC3)cc2)c1=O` (centres undefined) [ITRACONAZOLE]: the results for the IC50 with Leishmania amazonensis [2] and in the assay on Leishmania amazonensis [3] were 440 nM and 80 nM, respectively.
`CC(=O)N1CCN(c2ccc(OCC3COC(Cn4ccnc4)(c4ccc(Cl)cc4Cl)O3)cc2)CC1` (centres undefined) [KETOCONAZOLE]: the IC50 with Leishmania amazonensis [4] worked out at 2700 nM; in the assay with Leishmania amazonensis [5], 6800 nM.
`CCCCCCCCCCCCCCCCOP(=O)([O-])OCC[N+](C)(C)C` [MILTEFOSINE]: in the assay with Leishmania donovani, the Activity is listed as 96.32%.
For the compound `CC(C)=CCC/C(C)=C/CNCCNC1C2CC3CC(C2)CC1C3` (centres undefined) [SQ109], the IC50 in the assay on Leishmania mexicana was 11 nM.
